Results on one compound are retold here after publication PMC10609273, “Radiosynthesis and Early Evaluation of a Positron Emission Tomography Imaging Probe [^18F]AGAL Targeting Alpha-Galactosidase A Enzyme for Fabry Disease” (Molecules, 2023).

Format in all cases: in vitro ADME
Data set [1] can be described thus: In vitro liver microsomal metabolism study, human. Conditions: human liver microsomes. On the procedure: Metabolic stability was assessed by incubating compounds in the presence of human, rat, and mouse liver microsomal fractions (Xenotech, Kansas City, KS, USA). All chemicals and reagents, including control compounds, were purchased from commercial sources such as Sigma-Aldrich (St. Louis, MO, USA) or Toronto Research Chemicals (North York, ON, Canada). Liver microsomal incubations were conducted with 100 mM phosphate buffer, 0.5 mg/mL of liver microsomal protein, 2 mM NADPH, 2.5 mM UDPGA, 3 mM MgCl2, alamethicin, and 1 μM test article for a total incubation volume of 80 µL. All reagents except the liver microsomes were mixed together and aliquoted (60 μL) into 96-well plates. The reaction was initiated by adding the microsomes (20 μL). At 0, 3, 7, 12, 20, and 30 min time points, the reactions were terminated with the addition of acetonitrile-containing carbutamide (as an internal standard). The terminated samples were then centrifuged at 2 °C to pellet the protein and the supernatant was injected onto an LC–MS. The test article was monitored for loss over time and the t1/2 was determined. The calculated t1/2 was then used as described below to determine the Eh (hepatic extraction ratio) for both human and rat.
The intrinsic clearance (CLint), hepatic clearance (CLh), and hepatic extraction ratio (Eh) were calculated using the equations below. CLint = (0.693/t1/2 in vitro) × (mL incubation volume/mg microsomal protein) × (X mg of microsomal protein/gram of liver) × (Y g of liver/kg of body weight)(1) CLh = Q × CLint/Q + CLint(2) Eh = CLh/Q(3) where: • CLint = intrinsic clearance (calculated from microsomal incubations) • X = 40 for human, 41.5 for rat and 45 for mouse • Y = 21.4 for human, 40 for rat and 50 for mouse • t1/2 = half-life • CLh = hepatic clearance • Q = liver blood flow rate = 1.24 L/h/kg for human, 4.8 L/h/kg for rat, and 5.4 L/h/kg for mouse • Eh = hepatic extraction ratio • CLh = hepatic clearance

Data set [2] is described as follows: Bidirectional permeability in Caco-2 cells. Conditions: human, Caco-2, 5 µM, alone. On the procedure:
(§1) The Caco-2 cell culture and bidirectional permeability assays used in the study were adapted from previous studies at Takeda. Briefly, Caco-2 cells were obtained from American Type Culture Collection (ATCC) (Manassas, VA, USA) and were cultured in 175 cm^2 tissue culture T-flasks (Corning Life Sciences, Corning, NY, USA). For bidirectional permeability assays, cells were plated onto Costar 24-well culture plates (0.33 cm^2/well, […] (Corning Life Sciences, Corning, NY, USA) by adding 1 × 10^5 cells suspended in 0.2 mL of culture medium (Dulbecco’s modified Eagle’s medium [DMEM] with 0.1 mM non-essential amino acids, 2 mM L-glutamine, 4.5 g/L glucose, and 10% fetal bovine serum [FBS]) to the upper chamber of each well of the 24-well transwell plate. Cell-free culture medium (40 mL) was added to the lower chamber reservoir (Corning Life Sciences, Corning, NY, USA). The transwell plates were then incubated at 37 °C in an atmosphere of 5% CO2 for 25 days to ensure complete enterocyte-like differentiation of the cells, and the culture medium was changed every three to four days during the incubation period. Cell monolayers with transepithelial electrical resistance (TEER) values > 250 ohms × cm^2 were used for the bidirectional permeability assays.
(§2) All chemicals and reagents including control compounds were purchased from commercial sources such as Sigma-Aldrich or synthesized in house (pevonedistat and LY335979). Bidirectional transport studies were performed at 37 °C. Before each experiment, the confluent cell monolayers on transwell inserts were washed and equilibrated for 30 min with transport media (Hank’s Balanced Salt Solution [HBSS] containing 25 mM 4-(2-hydroxyethyl)-1-piperazineethanesulfonic acid [HEPES] and 10 mM glucose, pH 7.4 or 6.5). The bidirectional permeability of 5 µM of the cyclohexane derivative was assessed alone or in the presence of 5 µM LY335979, 5 µM K0143, or 10 µM Elacridar to inhibit P-gp, BCRP, and both efflux transporters, respectively. Additionally, the bi-directional permeability of 5 µM solutions of nadolol (low permeable control marker), minoxidil (high permeable marker), propranolol (high permeable marker), and pevonedistat (efflux transporter control) was also assessed. The experiment was initiated by adding a solution containing the test compounds and LY335979 to either the apical (for apical-to-basolateral [A-to-B] transport) or basolateral (for basolateral-to-apical [B-to-A] transport) compartment. Lucifer yellow (50 µM) was added to each donor chamber in the experiment to serve as a paracellular transport control and to monitor cell monolayer integrity. The apical volume was 0.2 mL and the basolateral volume was 1.0 mL. Bovine serum albumin (BSA, Sigma Aldrich) (5%) was added to the transport media on the receiver side to prevent non-specific binding of the test compound to the polystyrene well. After the addition of test compound into the donor side, […] of the receiving solution were withdrawn from the receiver side at 30 and 60 min. A […] of fresh transport media was immediately added to the receiver side at 30 and 60 min. The samples were placed into 96-well black plates (PerkinElmer Life Sciences, Boston, MA, USA) for fluorescence measurement (excitation at 450 nm and emission at 535 nm). After this measurement, the amounts of cyclohexane derivative and control compounds in each sample were quantified with liquid chromatography–mass spectrometry (LC–MS). The time course of drug transported across cell monolayers was analyzed to determine the time and rate of steady-state flux. The transport rate (total amount of drug present in the receiver chamber per unit time), Papp, and efflux ratio were calculated as described in Equations (4) and (5). […]
(In general: Caco-2 cells form a polarised layer with tight junctions and transporters.)

For data set [3], the system named is Caco-2 cells. The data set can be described thus: Bidirectional permeability in Caco-2 cells. On the procedure: as §1, §2
The subject of data set [4] is P-gp and BCRP. The data set can be described thus: Bidirectional permeability in Caco-2 cells. The conditions noted are these: human, Caco-2, with Elacridar (GF918) 10 µM, 5 µM, + 10 µM Elacridar (GF918) (dual inhibitor of P-gp and BCRP). On the procedure:
as §1, §2

In data set [5] the test system is BCRP. The data set can be described thus: Bidirectional permeability in Caco-2 cells. Conditions: human. On the procedure: as §1, §2
The test system of data set [6] is P-gp. The experiment in a line: Bidirectional permeability in Caco-2 cells. The conditions noted are these: human, Caco-2, with LY335979 5 µM. The protocol: as §1, §2
Where [7] appears, read: read-out: Ratio (B/A), efflux ratio.
The mark [8] stands for this setting: Caco-2, with KO143 5 µM, 5 µM, + 5 µM KO143 (BCRP inhibitor).
[9] abbreviates: 5 µM, + 5 µM LY335979 (P-gp inhibitor).

Molecules are shown by their SMILES. Read-outs that look alike come from different tables or passages of the source. A value given as a limit tells only on which side of the number the result lay.

The CLint scaled is the capacity of the preparation to metabolise the compound, expressed as a volume cleared per time. One may read the Papp A→B as how fast a substance crosses the layer from the apical side. As a reminder, the Papp B→A is how fast a substance crosses the layer from the basolateral side. In turn, `O=C(CCCCCCCn1cc(CCCF)nn1)N1[C@@H]2[C@H](O)[C@@H](O)[C@@H](O)[C@@H](CO)[C@@H]21` [AGAL] had a CLh in data set [1] below 4.68 mL/min/kg. In data set [1], the “Eh (hepatic extraction ratio)” value is recorded as below 0.226. For the same compound, the “microsomal stability, clearance in words” value in data set [1] is given as “minimally cleared”. Moreover, the CLint scaled at 1 µM in data set [1] (1 μM, NADPH + UDPGA) is below 6.05 mL/min/kg. In addition, the Papp A→B at 60 min, 5 µM in data set [2] is 0.11 ×10⁻⁶ cm/s; in data set [4], 0.25 ×10⁻⁶ cm/s; in data set [5] (setting [8]) it was 0.15 ×10⁻⁶ cm/s; in data set [6] (setting [9]) it was 0.25 ×10⁻⁶ cm/s. Also, the Papp B→A at 60 min, 5 µM in data set [2] was 1.36 ×10⁻⁶ cm/s; in data set [4], 0.74 ×10⁻⁶ cm/s; in data set [5] (setting [8]), 1.31 ×10⁻⁶ cm/s; in data set [6] (setting [9]), 0.95 ×10⁻⁶ cm/s. Also, the efflux ratio at 60 min, 5 µM is 12 in data set [2] (setting [7]); 2.9 in data set [4] (setting [7]); 1.4 in data set [5] (Caco-2, with K0143 5 µM, by BCRP inhibitor K0143, read-out: reduction of the efflux ratio); 8.7 in data set [5] (Caco-2, with KO143 5 µM, 5 µM, + 5 µM KO143 (BCRP inhibitor), read-out: Ratio (B/A), efflux ratio); 3 in data set [6] (by P-gp inhibitor LY335979, read-out: reduction of the efflux ratio); 3.9 in data set [6] (5 µM, + 5 µM LY335979 (P-gp inhibitor), read-out: Ratio (B/A), efflux ratio). Further, the “reduction of the efflux ratio” value in data set [3] (by LY335979) was determined as 67%; in data set [3] (by elacridar) it was 76%.
